Laboratory results reported in ChEMBL document CHEMBL3507680, “University of Dundee, Gates Library screen for HepG2 cell viability”.

Assay: Human HepG2 cell viability assay in 384 well format
Type: toxicity, cell-based
Design: dose 125 nL, time 70.5 hour; concentration not given beside the values
Conditions: HepG2 cells, read-out: Inhibition

| SMILES | cytotoxicity at 70.5 h [%] |
| --- | --- |
| Clc1ccc2nncc(N3CCCCC3)c2c1 | -10.7 |
| Cn1cc(NC(=O)c2cccc(Cl)c2)c(=O)n(C)c1=O | 24 |
| COCCn1c2c(ccc1=O)CCN(C(=O)NC1CC1)CC2 | -3.9 |
| N#CCCNC(=O)c1ccn(-c2ccc3ccccn23)n1 | -7.72 |
| COC(=O)CN(C)Cc1cc(Br)cs1 | 38.2 |
| O=C(NCC1(c2cccc(F)c2)CC1)N1CCC2(CCOC2)C1 (stereo unspecified) | -7.28 |
| Cc1nnc(C2CCN(C(=O)c3ccc4nccnc4c3)CC2)s1 | -8.52 |
| CN(C)c1ccc(C(=O)Nc2cn[nH]c2)cc1 | -2.5 |
| CC(=O)c1c(C)nn(CC(=O)Nc2ccc(Br)cc2)c1C | 4.72 |
| COCCn1cncc1CN1CCCC(C)(c2ccccc2)C1 (stereo unspecified) | 18 |
| Cn1nc(C2CNCCO2)cc1CCOc1ccc(Cl)cc1 (stereo unspecified) | 7.97 |
| CN(C)C(=O)CC1CC2(CCN(C(=O)N(C)C)CC2)Oc2ccccc21 (stereo unspecified) | -11.4 |
| COc1ccccc1CC(C)(C)NC(=O)CC(F)(F)F | -11.8 |
| NC[C@H]1CC[C@H](C(NC(=O)CC2CCCC2)c2ccccn2)CC1 (stereo partly specified) | -0.374 |
| Cc1nc(C)n(CC2CCCN2CC(=O)Nc2c(C)n[nH]c2C)n1 (stereo unspecified) | -1.18 |
| CCOC(=O)CNC(=O)NCc1cc(C)n(-c2ccc(OC)cc2)c1C | -22.5 |
| c1ccc(N2CC3(CCN(Cc4cccnc4)C3)C2)nc1 | -7.68 |
| CN1CCC(N(CCc2ccccc2)C(=O)c2ccoc2)CC1 | -7.47 |
| Cc1oc(-c2nc(C#N)c(NC(C)C)o2)cc1S(=O)(=O)N1CCCCC1 | -21.8 |
| Cc1cc2c(cc1C)OC1(C=C2)CCN(CC(=O)N2CCOCC2)CC1 | -8.77 |
| Cc1cnc(CN2CCOC(Cn3nc(C)cc3C)C2)cn1 (stereo unspecified) | 13.7 |
| Cc1nn(C)c2c(N3CCN(C(=O)C(C)C)CC3)ncnc12 | -5.46 |
| O=C(NCCO)c1coc(Cn2cnc3ccccc32)n1 | -1.94 |
| Cc1ccc(C(=O)N2Cc3c(CN4CCCCC4)nn(C)c3C2)cc1F | 36.2 |

| SMILES | cytotoxicity at 70.5 h [%] |
| --- | --- |
| CN(CC(C)(CO)CO)C(=O)Nc1cc(Cl)cc(Cl)c1 | -4.43 |
| COCc1cnc2n1CCN(C1CCCC1)C2C (stereo unspecified) | 5.67 |
| CC(C)CN1CCCn2nc(CNC(=O)Cc3cccc(O)c3)cc2C1 | -9.37 |
| Cc1ccsc1C(=O)N1C[C@@H]2CN(Cc3ccoc3)CCO[C@@H]2C1 | -1.7 |
| O=C(c1ccco1)N1CCCC(c2cc(C(F)F)n3ncnc3n2)C1 (stereo unspecified) | -14.3 |
| CC(=O)Nc1ccc(-c2cn(CCn3c(C)cc(C)nc3=O)nn2)cc1 | -6.08 |
| Cc1nccn1-c1ccc(N2CCC(NC(C)C(C)C)CC2)cc1 (stereo unspecified) | -2 |
| N[C@@H]1CC[C@@H](NC(=O)c2ccccc2OC(F)(F)C(F)F)C1 | 16 |
| Cc1nc(Cn2cc(I)cc(C)c2=O)oc1C | 2.15 |
| COc1cc(N2C[C@H]3CN(C(=O)c4cnccn4)C[C@H]3C2)ncn1 | -2.87 |
| CCc1nnc(CN2CCOC(Cn3cccn3)C2)o1 (stereo unspecified) | -8.14 |
| CN1CCC2(CC1)CCN(C(=O)c1onc3ccccc13)C2 | -6.04 |
| COCCN1C[C@H]2[C@@H](C1)N(C(=O)c1cccs1)CC[C@H]2OC | -21.9 |
| CN(Cc1ccco1)C(=O)NC1CCCN(c2ncccn2)C1 (stereo unspecified) | 8.71 |
| Cc1nonc1C1CCCN1C(=O)c1cn2ccsc2n1 (stereo unspecified) | -13.5 |
| COc1cccc(C(O)CN2CCN(C(=O)c3ccsc3)CC2)c1 (stereo unspecified) | -5.91 |
| Cc1cnn(CC(C)NCc2ccc(-n3cccn3)cc2)c1 (stereo unspecified) | 30.2 |
| Cc1cc(N(C)C)nc(C2COCCN2Cc2cc(C)on2)n1 (stereo unspecified) | -7.49 |
| CC(CN(C)Cc1cccc(-n2cccn2)c1)C(F)(F)F (stereo unspecified) | -1.16 |
| COc1ccc(CNC[C@H]2COCc3nc4cccnc4n32)cc1 | -4.57 |
| COc1ccc(CN2CCn3cc(CN4CCCCC4)nc3C2)cc1 | 29.5 |
| Cc1nc(N2CCCC2)nc2c1CCN(C(=O)CC1CC1)CC2 | -8.4 |
| CCc1nc(CN(C)CC(=O)NC(C)C)cs1 | -13.3 |
| CCn1cc(-c2cncn2CCc2ccc3c(c2)OCCO3)cn1 | 19.5 |

| SMILES | cytotoxicity at 70.5 h [%] |
| --- | --- |
| COc1ccc(C[C@H]2CNCC[C@@H]2OCC2CC2)cc1 | -8.25 |
| CC(=O)c1ccc(Nc2nc(N)nc3c2nc(C)n3C)cc1 | 4.46 |
| CC(Cn1ccnc1)NC(=O)NCc1ccccn1 (stereo unspecified) | -15.6 |
| COC(=O)N1CCc2ccccc2C1C(=O)NCc1ccccn1 (stereo unspecified) | 0.0153 |
| CC(C)S(=O)(=O)N1CCCC(c2nnc(Cn3ccnc3)n2C)C1 (stereo unspecified) | -7.74 |
| CSC(C)C(=O)Nc1ccnn1-c1ccccc1C (stereo unspecified) | 31.2 |
| Cn1cccc1C(=O)N1CC[C@@H]2[C@@H]1CC(=O)N2CC1CCOCC1 | 0.858 |
| CC(C)C(CNC(=O)Nc1cn[nH]c1)N1CCOCC1 (stereo unspecified) | -5.6 |
| CCc1nc(C2CCCN2C(=O)c2c[nH]c(C)n2)no1 (stereo unspecified) | 27.8 |
| OCCOc1cc(F)ccc1NCc1nc(-c2ccoc2)no1 | 8.3 |
| COc1ccc(CCC(=O)Nc2ccncc2C)cc1 | -9.71 |
| COCCCNC(=O)Cc1cc(-c2ccc3c(c2)OCO3)on1 | 13.4 |
| CCn1c(C)cc(C(=O)NCc2ccc(CS(C)(=O)=O)cc2)c1C | -7.81 |
| O=C(NCCc1nccs1)c1cn(CCN2CCNCC2)nn1 | -2.39 |
| Cc1noc(C(C)C)c1C(=O)NCCN1CCOCC1 | -17.9 |
| O=S1(=O)COCCN1Cc1ccc(F)c(F)c1 | -7.08 |
| CN1CCCC(N(C)C(=O)c2ccc(NC(=O)c3ccc[nH]3)cc2)C1 (stereo unspecified) | -0.19 |
| Cc1ccccc1NC(=O)c1cncc(C2CCNCC2)n1 | -4.64 |
| CS(=O)(=O)N1CCC(Oc2ccc(C(=O)NCC3CCC3)cc2Cl)CC1 | -12.8 |
| Cc1cccc(-c2nccn2-c2cccc(CC(=O)O)c2)n1 | -9.85 |
| CCc1nccn1C1CCCN(C(=O)c2ccnc(N(C)C)c2)C1 (stereo unspecified) | -7.75 |
| COCc1nnc(-c2cccc(C(=O)N(C(C)C)C3CCC3)c2)o1 | -12.7 |
| Cc1cc(C)n(CC(C)NC2CCN(Cc3cccnc3)CC2)n1 (stereo unspecified) | -7.19 |
| CCn1nccc1CNC(=O)NC1CCCCC1 | 6.27 |

| SMILES | cytotoxicity at 70.5 h [%] |
| --- | --- |
| CCn1nc(C)c(CCNC(=O)C2CCCN(C(=O)COC)C2)c1C (stereo unspecified) | 18 |
| Cc1cnn(CC2CCCN2C(=O)c2cc(C)no2)c1 (stereo unspecified) | 25.6 |
| NCCc1n[nH]c(=O)n1-c1cccc(Cl)c1Cl | -3.82 |
| CCc1ncc(CNCc2cccnc2N(C)C)cn1 | -12.1 |
| CC(Cn1ccnc1)NC(=O)NCCN1CCCCCC1=O (stereo unspecified) | -4.74 |
| CC(C(=O)NCc1cccc(N2CC=CC2)c1)n1cccn1 (stereo unspecified) | -7.35 |
| Cn1nnnc1SCC(=O)N1CCN(C(=O)C2CC2c2cccs2)CC1 (stereo unspecified) | 1.49 |
| CC(=O)N[C@@H]1CN(Cc2cccs2)C[C@H]1c1ccc(C)o1 | 1.3 |
| CC(C)CCn1cc(C(C(=O)O)N2CCCN(C3CCCC3)CC2)cn1 (stereo unspecified) | -9.63 |
| CCn1nccc1CNC(=O)CCC1CCCC1 | 18.7 |
| O=C(NCCc1cccs1)N1CCCC2(CCC(=O)N(C3CC3)C2)C1 (stereo unspecified) | -0.67 |
| CNS(=O)(=O)c1ccc(CNC(=O)c2cc(C)no2)cc1 | -11.9 |
| COC(=O)NCC(=O)NCC1(c2c(F)cccc2F)CCCC1 | 1.47 |
| OC1CCN(c2ccc(CNc3nc4ccccc4o3)cc2F)CC1 | -9.97 |
| CO[C@H]1COCCN(C(=O)c2ccc(C(F)(F)F)cc2)C1 | -4.56 |
| Cc1ccc(NC2CCN(C(=O)Cc3csc(C)n3)CC2)nn1 | -9.75 |
| CCc1c(C)sc2ncnc(N3CCN(C4CCOCC4)CC3)c12 | -11.1 |
| COc1ccc(CCCC(=O)N2CCCC(n3cncn3)C2)cc1 (stereo unspecified) | -2.82 |
| CCCNC(=O)NC(=O)CNC(C)(C)c1ccc2c(c1)OCO2 | -0.993 |
| COCCCNC(=O)CN1CCSC(c2ccccc2)C1 (stereo unspecified) | 3.9 |
| COC(C)c1nc(CN2CCCNCC2)cs1 (stereo unspecified) | -3.19 |
| CCOCCN1CCN(CC(O)c2ccc(C(F)(F)F)cc2)CC1 (stereo unspecified) | -0.521 |
| Cc1cnn(C2CN(Cc3nc(-c4ccccn4)no3)C2)c1 | 12.3 |
| CC(C(=O)N1CCc2sccc2C1)N1CCC(S(N)(=O)=O)CC1 (stereo unspecified) | -4.51 |

| SMILES | cytotoxicity at 70.5 h [%] |
| --- | --- |
| O=C(NCCSc1ccccc1)[C@H]1CNC[C@@H](C(=O)N2CCOCC2)C1 | -7.93 |
| CCc1[nH]c(C2(N)CCCC2)nc(=O)c1C | 19.5 |
| CC(NC(=O)c1cccc(CN2CCN(C)CC2)c1)c1ccccn1 (stereo unspecified) | 0.178 |
| OCC1(O)CCCN(Cc2ccccc2OCCc2ccccc2)CC1 (stereo unspecified) | -5.14 |
| O=C(NCc1ccco1)[C@@]12CCO[C@@H]1CCN(CC1CCOCC1)C2 | -1.64 |
| CCS(=O)(=O)N1CCN(CCOC)c2ncccc2C1 | -4.33 |
| CC(C)NC(=O)CCNC(=O)Nc1cnn(-c2ccccc2F)c1 | -0.437 |
| COc1ccc(CN2C[C@H]3CN(Cc4ccncc4)C(=O)[C@H]3C2)cc1 | -7.43 |
| CN(Cc1ccsc1)C(=O)Nc1ccc(N(C)C)nc1 | -2.83 |
| CCC(CC)c1cc(CNC(=O)N2CCCC(N(C)C)C2)on1 (stereo unspecified) | -9.56 |
| Cn1nc(C#N)c2c1CN(C(=O)c1c[nH]cn1)CCC2 | -7.05 |
| CN(C)CC1(O)CCCN(C(=O)CCn2cc(Cl)cn2)C1 (stereo unspecified) | 26.8 |
| COc1cccc2c1OCC(CNC(=O)CSc1nc(N)n[nH]1)C2 (stereo unspecified) | -12 |
| CC(C)CC(=O)N1CCCC2(CC(C(=O)Nc3ccccc3)=NO2)C1 (stereo unspecified) | -0.967 |
| Cc1c(NCc2cccc(C#N)c2)cccc1S(=O)(=O)NC1CC1 | 4.95 |
| Cc1cc(CN2CCCC(Cn3cncn3)C2)no1 (stereo unspecified) | 16 |
| Cc1cc(=O)[nH]c(NC2CCN(S(=O)(=O)c3ccccc3)CC2)n1 | -2.77 |
| CN(C)c1cc(C(=O)N2CCCN(Cc3nccn3C)CC2)ccn1 | 14.3 |
| COCCC1(C(=O)O)CCCN(Cc2ccccc2OCCO)C1 (stereo unspecified) | -8.44 |
| COc1cc(OC)cc(C(=O)NCC(c2cccn2C)N2CCCC2)c1 (stereo unspecified) | 30.6 |
